The results in this text go back to PMC6270921, “Study on the Cytotoxic Activity of Drimane Sesquiterpenes and Nordrimane Compounds against Cancer Cell Lines” (Molecules, 2014).

Series [1] has as its system PC-3 prostate cancer cell line. Briefly: Cell viability, sulforhodamine B assay. Format: cell-based. To be noted: Homo sapiens, 72 h exposure, dilutions 12.5 to 100 μM, read-out: Cytotoxicity IC50, PC-3. On the procedure:
(§1) The cytotoxicity of compounds 1–12 was evaluated in vitro against different cancer cell lines: MCF-7 breast cancer, DU-145 and PC-3 human prostate cancer, and one non-tumor cell line, human colon epithelial cells CCD 841 CoN (CoN). […] Four serial dilutions (from 12.5 to 100 μM) for each sample were evaluated in triplicate.
(§2) The experimental cell cultures were obtained from the American Type Culture Collection (Rockville, MD, USA). MCF-7 cells (breast cancer cell line), PC-3 and DU-145 (prostate cancer cell lines), and human colon epithelial cells CCD 841 CoN (non-tumoral cell line) were grown in Dulbecco’s modified Eagle’s medium (DMEM) containing 10% FCS, 100 U/mL penicillin, 100 μg/mL streptomycin, and 1 mM glutamine. Cells were seeded into 96 well microtiter plates in 100 μL at a plating density of 5 × 10^3 cells/well. After 24 h incubation at 37 °C under a humidified 5% CO2 atmosphere to allow cell attachment, the cells were treated with different concentrations of drugs and incubated for 72 h under the same conditions. Stock solutions of compounds were prepared in ethanol and the final concentration of this solvent was kept constant at 1%. Control cultures received 1% ethanol alone.
(§3) The sulforhodamine B assay was used according to the method of Skehan et al.. Briefly, the cells were set up at 3 × 10^3 cells per well of a 96 200 μL well, flat-bottomed, microplate. Cells were incubated at 37 °C in a humidified 5% CO2/95% air mixture and treated with the compounds at different concentrations for 72 h. At the end of drug exposure, cells were fixed with 50% trichloroacetic acid at 4 °C. After washing with water, cells were stained with 0.1% sulforhodamine B (Sigma-Aldrich, St. Louis, MO, USA), dissolved in 1% acetic acid (50 μL/well) for 30 min, and subsequently washed with 1% acetic acid to remove unbound stain. Protein-bound stain was solubilized with 100 μL of 10 mM unbuffered Tris base, and the cell density was determined using a […] plate reader (wavelength 540 nm). Values shown are the mean ± SD of three independent experiments in triplicate. The software used to calculate the IC50 values was GraphPad (GraphPad Software, San Diego, CA, USA).

Series [2] is described as follows: Cell viability, sulforhodamine B assay. Format: cell-based. The conditions noted are these: human, CCD 841 CoN colon epithelial cells (non-tumoral cell line), 72 h exposure, dilutions 12.5 to 100 μM, non-tumor cell line, read-out: Cytotoxicity IC50, CoN. As to the method: as §1, §2, §3
Series [3] deals with DU-145 prostate cancer cell line. The series is described as follows: Cell viability, sulforhodamine B assay. Format: cell-based. The conditions noted are these: Homo sapiens, 72 h exposure, dilutions 12.5 to 100 μM, read-out: Cytotoxicity IC50, DU145. On the procedure:
as §1, §2, §3

In series [4] the test system is MCF-7 breast cancer cell line. The series is described as follows: Cell viability, sulforhodamine B assay. To be noted: Homo sapiens, MCF7, 72 h exposure, dilutions 12.5 to 100 μM, read-out: Cytotoxicity IC50, MCF-7. Format: cell-based. On the procedure:
as §1, §2, §3

Series [5] concerns panel of cancer cell lines. The series is described as follows: Cytotoxicity against a panel of cancer cell lines (summary). Format: cell-based. To be noted: Homo sapiens; summary statement of the conclusions. As to the method: as §1, §3
In series [6] the test system is CoN cells. Briefly: Mitochondrial membrane permeability, rhodamine 123 flow cytometry. Format: cell-based, human. From the text:
(§4) Mitochondria play a crucial role in the apoptotic cascade by serving as a convergent center of apoptotic signals originating from both the extrinsic and intrinsic pathways. Changes induced in the mitochondrial membrane potential (MMP) have been reported previously to represent a determinant in the execution of cell death. As polygodial has been described as an inhibitor of mitochondrial ATPase and also as nonionic surfactant. This effect may be determinant in cell death, we has analyzed the effect of compounds 1, 8 and 12 on the mitochondrial membrane potential using flow cytometry with rhodamine 123 stain [24]. […] Similar differences were observed after treatments with compounds 1 and 8 at 100 μM.
(§5) Rhodamine 123, a cationic, voltage-sensitive probe that reversibly accumulates in mitochondria, was used to detect changes in transmembrane mitochondrial membrane potentials. Cells were labelled with 1 μM rhodamine 123 at 37 °C in cell medium for 60 min before terminating the experiment. Cells were detached from the plate, after washing with ice cold PBS, and the samples were analyzed by flow cytometry. Data are expressed in percentage of cells with rhodamine 123 [24].

The subject of series [7] is PC-3 cells. The series is described as above. Format: cell-based, human.
From the text: as §4, §5

Series [8] concerns MCF-7 cells. Described as above. Format: cell-based, human.
From the text: as §4, §5

Series [9] deals with CoN cells. Briefly: Morphological changes, phase contrast microscope. Format: cell-based, human. To be noted: 50 μM compound for 24 h. As to the method:
(§6) First, the appearance of morphological changes in the cells treated with 50 μM compound for 24 h was analyzed.

Series [10] has as its system PC-3 cells. Briefly: Morphological changes, phase contrast microscope. Format: cell-based, human. To be noted: PC-3, 50 μM compound for 24 h. On the procedure: as §6
Series [11] relates to MCF-7 cells. The series is described as follows: Morphological changes, phase contrast microscope. Format: cell-based, human. The conditions noted are these: MCF-7, 50 μM compound for 24 h. As to the method:
as §6

The subject of a further series is caspase-3 in CoN cells. Briefly: Caspase 3 activity assay (colorimetric, DEVD-pNA). Format: cell-based, human. To be noted: compound 50 μM, control 1% ethanol. The source says: (§7) Depletion of mitochondrial membrane potential leads to the release of apoptogenic factors, such as cytochrome c in the apoptotic cascade, and activation of caspases. Then we investigated the effects of our compounds on caspase activity. We focused on caspase-3, which is a main executor of apoptosis playing a central role in its biological processing. We analyzed the effect of treatment with the compound 1, 8 and 12 on caspase-3 activation in normal and cancer cells. […] Compound 1 increased the activity of caspase-3 by 3.4 ± 0.1, 1.4 ± 0.1 and 2.8 ± 0.1 times versus control cells in MCF-7 (black), CoN (white) and PC-3 (gray) cells, respectively. Compound 8 increased the activity of caspase 3 by 2.4 ± 0.1, 1.3 ± 0.2 and 2.7 ± 0.1 times versus control cells in MCF-7 (black), CoN (white) and PC-3 (gray) cells, respectively.
(§8) Caspase activity was measured using a colorimetric assay. Briefly, the cells exposed to compounds were collected by centrifugation at 1000 rpm and lysed with lysis buffer (1% Triton X-100, 0.32 M sucrose, 5 mM EDTA, 10 mM Tris–HCl, pH 8.0, 2 mM dithiothreitol, 1 mM PMSF, […] aprotinin, 1 mg/mL leupeptin). Thereafter, the lysates were transferred to wells in a 96-well microplate and were incubated with DEVD-pNA (final concentration 200 μM) specific for caspase-3/7, at 37 °C for 1 h. The intensity of the developed color was read at 405 nm in a microplate reader (SpectraMax, Winooski, VT, USA). The results are expressed as percentages of the control level.

For the next series, the system named is caspase-3 in MCF-7 cells. Briefly: Caspase 3 activity assay (colorimetric, DEVD-pNA). To be noted: MCF-7, compound 50 μM; control 1% ethanol. Format: cell-based, human.
From the text: as §7, §8

Another series concerns caspase-3 in PC-3 cells. Briefly: Caspase 3 activity assay (colorimetric, DEVD-pNA). Format: cell-based, human. The conditions noted are these: PC-3, compound 50 μM; control 1% ethanol.
From the text: as §7, §8

Take `CC1(C)CCC[C@]2(C)[C@H](CO)C(CO)=CC[C@@H]12` [Compound 6, 9α-drimendiol]: the 50% inhibitory concentration (IC50) in series [1], in series [3] and in [4] was greater than 200 µM throughout. In addition, the 50% inhibitory concentration (IC50) at 72 h in [2] was greater than 200 µM.
For `CC(=O)O[C@H]1C[C@H]2C(C)(C)CCC[C@]2(C)C=C1C` [Compound 10], the half-maximal inhibitory concentration (IC50) in [1], in [3] and in series [4] was greater than 200 µM throughout. The 50% inhibitory concentration (IC50) at 72 h in series [2] is greater than 200 µM.
On to `CC1=CC[C@H]2C(C)(C)CCC[C@]2(C)[C@H]1CO` [Compound 3, drimenol], for which the 50% inhibitory concentration (IC50) in series [1], in series [3] and in series [4] was greater than 200 µM in each case. Also, in series [2], the IC50 at 72 h is greater than 200 µM.
Consider `CC1(C)CCC[C@]2(C)C3=C(CC[C@@H]12)COC3=O` [Compound 5, isodrimenin], for which the IC50 is 87.6 ± 9.2 µM in series [1], 90.5 ± 8.2 µM in series [3], greater than 200 µM in series [4] and less than 200 µM in series [5]. The IC50 at 72 h in [2] was greater than 200 µM.
On to `CC1(C)CCCC2(C)C1CC(=O)C1(C)OC12` (stereo not drawn) [Compound 12, 8α,9α-epoxi-11-nordriman-7-one], for which the “percentage of rhodamine 123 stained cells” value in the series on CoN cells [6] (compound 50 µM, control treated cells assigned 100%) is listed as 102.6 ± 9.1%; with CoN cells [6] (compound 100 µM, control treated cells assigned 100%) it was 124.9 ± 9.7%; with PC-3 cells [7] (PC-3, compound 50 µM, control treated cells assigned 100%), 139.1 ± 12.4%; in the series on PC-3 cells [7] (PC-3, compound 100 µM, control treated cells assigned 100%) it was 149.3 ± 21.3%; with MCF-7 cells [8] (MCF-7, compound 50 µM, control treated cells assigned 100%), 111.4 ± 8.9%; in the series on MCF-7 cells [8] (MCF-7, compound 100 µM, control treated cells assigned 100%) it was 111.3 ± 9.8%. The half-maximal inhibitory concentration (IC50) was 90.2 ± 8.8 µM in [1], greater than 200 µM in [3], 88.4 ± 7.1 µM in series [4] and less than 200 µM in series [5]. Moreover, the half-maximal inhibitory concentration (IC50) at 72 h in series [2] is greater than 200 µM. The “morphological changes of cells” value with CoN cells [9], with PC-3 cells [10] and with MCF-7 cells [11] was “severely distorted” in each case. For the same compound, the “increase of caspase-3 activity” value with caspase-3 in CoN cells, with caspase-3 in MCF-7 cells and in the series with caspase-3 in PC-3 cells was “did not change” in each case.
For `CC(=O)O[C@H]1C[C@H]2C(C)(C)CCC[C@]2(C)[C@@H]2O[C@]12C` [Compound 11, (5S,7S,8R,9S,10S)-4,4,8β,10β-tetramethyldecahydronaphtho[8,9-α]oxiren-7-yl acetate], the IC50 in [1], in series [3] and in series [4] was greater than 200 µM throughout. Besides, in [2], the IC50 at 72 h was greater than 200 µM.
Take `CC1(C)CCC[C@]2(C)[C@@H](CO)C(CO)=CC[C@@H]12` [Compound 7, 9β-drimendiol]: the IC50 in series [1], in series [3] and in series [4] was greater than 200 µM throughout. Further, the IC50 at 72 h in series [2] was greater than 200 µM.
Regarding `CC1(C)CCC[C@]2(C)C3=C(CC[C@@H]12)C(=O)OC3` [Compound 4, confertifolin], the IC50 in series [1], in series [3] and in series [4] was greater than 200 µM each time. Moreover, the IC50 at 72 h in series [2] is greater than 200 µM.
Turning to `N#CC(C#N)=NNc1ccc(OC(F)(F)F)cc1` [FCCP, reference compound], the “percentage of rhodamine 123 stained cells” value was 6.8 ± 1.3 % in the series with CoN cells [6] (positive control FCCP 10 μM); 5.2 ± 0.4 % in the series on PC-3 cells [7] (PC-3, positive control FCCP 10 μM); 7.4 ± 0.4 % with MCF-7 cells [8] (MCF-7, positive control FCCP 10 μM).
As to `CC1(C)CCC[C@]2(C)[C@H]3O[C@@]3(C)C(=O)C[C@@H]12` [Compound 9], the IC50 in series [1] is 97.5 ± 10.4 µM; in [3], 93.5 ± 6.7 µM; in series [4], greater than 200 µM; in [5], less than 200 µM. In addition, in [2], the IC50 at 72 h is greater than 200 µM.
